Data published in patent US5128051A, “Method for the control of biofouling” (Union Carbide Chemicals & Plastics Technology Corporation, priority 1991, dated 1992).
≈ marks a conversion by molar mass, not a printed value. Like-named read-outs stand apart in the source and are kept apart here.

Legend:
[1] = system: Aerobic Bacterial Biofilms (oil field isolate); experiment: Log reduction of sessile aerobic bacteria in biofilm on stainless steel penicylinders (Example 1, Procedure A); type: cell-based, predominantly Pseudomonas species; settings: for log reduction at 10 ppm / log reduction at 25 ppm / log reduction at 50 ppm / log reduction at 5 ppm: Pseudomonas, 5.1 represents complete kill
Protocol: (§1) Approximately 20 ml of sterile Bacto TGE broth (Difco Labs) were placed in a sterile Petri dish (15×100 mm). To this media, 10 ml of a 24 hour culture of the aerobic organisms to be tested were added. Sterile, stainless steel penicylinders (10 mm O.D., 7 mm I.D., 10 mm long) were then placed in the inoculated media. The cylinders were placed in the dish either on-end or on-side. The Petri dish containing the cylinders was then incubated at 37° C. for 48 hours. At that time, cylinders were individually removed aseptically using forceps, blotted on sterile filter paper, and washed three times by dipping in sterile saline solution. This procedure was used to ensure that only organisms that were firmly attached in the biofilm were tested.
(§2) Two biofilm-coated cylinders were then carefully dropped into separate 10 ml test tubes containing biocide solutions of varying concentrations. After one hour and four hour contact times, a cylinder was aseptically transferred to a fresh tube of TGE broth and vortexed for 30 seconds to remove all sessile organisms. The resulting broth suspension was then serially diluted and plated using TGE agar for enumeration. Plates were incubated for 48 hours at 37° C. before counting.
(§3) To minimize error, all biocide concentration/contact time points reported below were tested in duplicate and the results averaged. Results are reported as log reduction of microorganisms compared to control cylinders treated in the same manner except that no biocide was employed.
An oil field isolate of aerobic bacteria was utilized in all aerobic biofilm experiments. This culture was taken from a water-flooded oil well in Texas and was tentatively identified as containing predominantly Pseudomonas species. The biofilms were developed following above Procedure A. Respective samples were treated with various concentrations of the biocides listed below and the number of bacteria were counted after one hour and four hours of contact.

[2] = system: Sessile Anaerobic Bacterial Biofilms (SRB); experiment: Log reduction of sessile sulfate-reducing bacteria in biofilm on mild steel penicylinders (Example 3, Procedure B); type: cell-based; settings: for log reduction at 100 ppm / log reduction at 10 ppm / log reduction at 25 ppm / log reduction at 50 ppm: 4 represents complete kill
Protocol: SRB-containing media were prepared as follows:
14.5 g of Bacto Sulfate API Broth (Difco Labs) and 2.0 g Bacto Agar (Difco Labs) were added to 1000 ml distilled water. The solution was heated and stirred until all components were dissolved. A 1% solution of sodium thioglycollate in distilled water was also prepared. Both solutions were then autoclaved at 121° C. for 30 minutes. After cooling, 5 g of the sodium thioglycollate solution was added to the media mixture.
Mild steel penicylinders (10 mm O.D., 7 mm I.D., 10 mm long) were cleaned by soaking for 10 minutes in 0.5% hydrochloric acid. Cylinders were then rinsed three times with distilled water and dried before use.
A 4 oz screw-capped bottle was purged with argon to remove oxygen, capped and then autoclaved. After cooling, 100 ml of sterile SRB media was added to this bottle. Cleaned penicylinders were then added along with 10 ml of a five day old SRB culture. All operations were conducted under a constant stream of argon to minimize oxygen levels. The bottle was then incubated for 7-14 days (depending on the SRB used) at 37° C. At that time, cylinders were individually removed aseptically using forceps and blotted on sterile filter paper.
Two biofilm-coated cylinders were then carefully dropped into separate 10 ml test tubes of deaerated biocide solutions of varying concentrations. All of the biocide and control solutions contained 30 ppm of a non-ionic nonyl phenol ethoxylate surfactant (TERGITOL® NP-4, Union Carbide Chemicals and Plastics Company Inc., Danbury, CT). After one hour and four hour contact times, a cylinder was removed, blotted on sterile filter paper, and placed into a commercially available SRB vial (C&S Laboratories, Tulsa, OK). The vial was then sonicated (Bransonic Model 12) for 30 seconds to remove sessile organisms. The resulting solution was serially diluted into additional SRB vials for enumeration. Vials were grown for 28 days at 37° C. before reading. Blackening of the vials was used as an indication of growth.
as §3
A SRB culture was obtained from a water-flooded oil well in Alaska. The bacteria were then cultivated on the walls of the steel penicylinders using Procedure B described above. Respective samples were then contacted with glutaraldehyde, formaldehyde or OPA for one and four hours with the following results: […]

biofilm deposits = settings: dynamic laboratory reactors, waterflood pipeline conditions; Eagar et al.; cited from earlier work
P. vulg. = settings: planktonic; cited from earlier work
P. aerug. = settings: planktonic; cited from earlier work
[3] = system: Planktonic Anaerobic Bacteria (SRB); experiment: Log reduction of planktonic sulfate-reducing bacteria (Example 4, Procedure C); type: cell-based
Protocol: A stock culture of the SRB to be tested was grown in a commercial SRB vial for 4 days at 37° C. The vial was then purged for approximately 30 seconds with argon to remove excess hydrogen sulfide. At that time a series of SRB vials were each inoculated with 0.1 ml of this stock culture. These vials were then incubated at 37° C. for 4 days. Each of these vials was then purged with argon. Appropriate stock solutions of biocide were prepared so that additions of 0.1-1.0 ml provided the desired concentration of biocide in each SRB vial. After 1 hour and 4 hour contact times, 1 ml aliquots were removed from each vial and were injected into fresh SRB vials. These vials were then serially diluted for enumeration.
as §3
The same sample of planktonic SRB as used in Example 3 was cultivated following above Procedure C. Respective samples of bacteria were treated with varying concentrations of OPA and the log reduction in the number of bacteria was recorded in each case.

K. pneum. = settings: planktonic; cited from earlier work
[4] = system: Aerobic Bacterial Biofilms; experiment: Log reduction of sessile microorganisms in aerobic biofilm (Example 2, Procedure A); type: cell-based, predominantly Pseudomonas species; settings: for log reduction at 50 ppm / log reduction at 100 ppm / log reduction at 200 ppm: Pseudomonas, 7.4 represents complete kill
Protocol: as §1, §2, §3
Respective samples of the five compounds were tested against the sessile microorganisms embedded in biofilms. The biofilm was comprised of a variety of microorganisms, but contained predominantly Pseudomonas species cultivated using Procedure A. The number of organisms were counted after one hour and four hours of contact.

C. albic. = settings: planktonic; cited from earlier work
Solubility in water = type: physicochemical; settings: 25° C., read-out: limit of solubility in water
S. aureus = settings: planktonic; cited from earlier work
[5] = 1 hr contact, read-out: log reduction after 1 hr
[6] = 4 hr contact, read-out: log reduction after 4 hr

O=CCCCC=O [GA, glutaraldehyde]
log reduction at 10 ppm [1, 5]: 0.1
log reduction at 10 ppm [1, 6]: 0.7
log reduction at 25 ppm [1, 5]: 0.3
log reduction at 25 ppm [1, 6]: 1.7
log reduction at 50 ppm [1, 5]: 5.1
log reduction at 50 ppm [1, 6]: 5.1
log reduction at 100 ppm [2, 5]: 3
log reduction at 100 ppm [2, 6]: 4
concentration required to achieve the same level of effectiveness as OPA ([2]; SRB biofilm, compared with OPA 10 ppm, 4 hours): Significantly higher concentrations
removing biofilm deposits and controlling number of viable organisms (biofilm deposits): effective in removing biofilm deposits and controlling the number of viable organisms

O=Cc1ccccc1C=O [OPA, ortho-phthalaldehyde]
log reduction at 5 ppm [1, 5]: 0.8
log reduction at 5 ppm [1, 6]: 5.1
log reduction at 10 ppm [1, 5]: 1.4
log reduction at 10 ppm [1, 6]: 5.1
log reduction at 25 ppm [1, 5]: 5.1
log reduction at 25 ppm [1, 6]: 5.1
effectiveness versus glutaraldehyde and formaldehyde ([1]; aerobic biofilm, Example 1): outperformed both glutaraldehyde and formaldehyde
MIC (P. vulg.): 0.25 mMole %
MIC (P. aerug.): 0.25 mMole %
log reduction at 10 ppm [2, 5]: 3
log reduction at 10 ppm [2, 6]: 4
log reduction at 25 ppm [2, 5]: 3
log reduction at 25 ppm [2, 6]: 4
log reduction at 50 ppm [2, 5]: 4
log reduction at 50 ppm [2, 6]: 4
MBC ([2]; Example 3, read-out: OPA concentrations at which a complete kill of sessile microorganisms occurred (as low as)): 10 to 50 µg/mL (≈ 74.6 to 373 µM)
MBC ([2]; within 4 hours, read-out: concentration that completely kills all sessile anaerobic organisms in the biofilm): 10 µg/mL (≈ 74.6 µM)
log reduction at 100 ppm ([3]; 1 hr contact, 4 represents complete kill, read-out: log reduction after 1 hr): 0
log reduction at 100 ppm ([3]; 4 hr contact, 4 represents complete kill, read-out: log reduction after 4 hr): 0
log reduction at 500 ppm ([3]; 500 ppm, 1 hr contact, 4 represents complete kill, read-out: log reduction after 1 hr): 2 to 3
log reduction at 250 ppm ([3]; 1 h, read-out: log reduction after 1 hr): 1
log reduction at 250 ppm ([3]; 4 h, read-out: log reduction after 4 hr): 1 to 2
MBC ([3]; Example 4, read-out: concentration for complete kill of planktonic SRB (not achieved at concentrations as high as)): > 500 µg/mL
MIC (K. pneum.): 0.25 mMole %
log reduction at 50 ppm [4, 5]: 2.9
log reduction at 50 ppm [4, 6]: 7.4
log reduction at 100 ppm [4, 5]: 3.4
log reduction at 100 ppm [4, 6]: 7.4
log reduction at 200 ppm [4, 5]: 6
log reduction at 200 ppm [4, 6]: 7.4
effectiveness against sessile microorganisms in biofilms versus other aldehydes ([4]; other aldehydes at four times the concentration of OPA): surprising effectiveness
MIC (C. albic.): 0.25 mMole %
solubility (Solubility in water): ~50 mg/mL (≈ 373000 µM)
MIC (S. aureus): 0.25 mMole %

COc1cccc(C=O)c1O [OVA, ortho-vanillin]
MIC (P. vulg.): 0.25 mMole %
MIC (P. aerug.): 0.5 mMole %
MIC (K. pneum.): 0.25 mMole %
log reduction at 50 ppm [4, 5]: 0
log reduction at 50 ppm [4, 6]: 0
log reduction at 100 ppm [4, 5]: 0
log reduction at 100 ppm [4, 6]: 0
log reduction at 200 ppm [4, 5]: 0.3
log reduction at 200 ppm [4, 6]: 0.3
MIC (C. albic.): 0.25 mMole %
MIC (S. aureus): 0.5 mMole %

O=Cc1ccccc1O [SA, salicylaldehyde]
MIC (P. vulg.): 0.25 mMole %
MIC (P. aerug.): 0.25 mMole %
MIC (K. pneum.): 0.25 mMole %
log reduction at 50 ppm [4, 5]: 0
log reduction at 50 ppm [4, 6]: 0
log reduction at 100 ppm [4, 5]: 0
log reduction at 100 ppm [4, 6]: 0
log reduction at 200 ppm [4, 5]: 0.2
log reduction at 200 ppm [4, 6]: 0.2
MIC (C. albic.): 0.25 mMole %
MIC (S. aureus): 0.25 mMole %
